For four compounds, IC50 and tumor inhibition rate results are on record in US20230241242A1, “PREPARATION METHOD FOR ANTIBODY MEDICAMENT CONJUGATE” (priority 2020, published 2023).

One assay has as its system U87MG cells. In words: Inhibition of in vitro proliferation of tumor cells by compounds (CTG, 6 days). The format is cell-based. The following applies: Homo sapiens, U-87 MG, 144 h, read-out: IC50 in inhibiting in vitro proliferation of U87 cells. Here is the method: (§1) This experiment was intended to detect the inhibitory activity of the pharmaceutical compounds of the present disclosure against the in vitro proliferation of U87MG cells (Cell Bank, Chinese Academy of Sciences, Catalog #TCHu138) and SK-BR-3 tumor cells (human breast cancer cells, ATCC, Cat #HTB-30). The cells were treated in vitro with a compound at different concentrations. After 6 days of culture, the proliferation of cells was tested using CTG (CellTiter-Glo® Luminescent Cell Viability Assay, Promega, Cat #G7573) reagents, and the in vitro activity of the compound was evaluated according to IC50 value.
(§2) The method for testing the inhibition of the in vitro proliferation of U87MG cells was described below as an example for the method for assaying for the inhibitory activity of the compounds of the present disclosure against the in vitro proliferation of tumor cells.
(§3) 1. Cell culture: U87MG and SK-BR-3 cells were cultured in EMEM medium (GE, Cat #SH30024.01) containing 10% FBS and McCoy's 5A medium (Gibco, Cat #16600-108) containing 10% FBS, respectively.
(§4) 2. Cell preparation: U87MG and SK-BR-3 cells growing at log phase were washed once with PBS (phosphate buffer, Shanghai BasalMedia Technologies Co., Ltd.) and then digested with 2-3 mL of trypsin (0.25% Trypsin-EDTA (1×), Gibico, Life Technologies) for 2-3 min After the cells were completely digested, 10-15 mL of cell culture media were added to elute the digested cells. The mixtures were centrifuged at 1000 rpm for 5 min, and the supernatants were discarded. Then the cells were resuspended in 10-20 mL of cell culture media to give single-cell suspensions.
(§5) 3. Cell plating: the U87MG and SK-BR-3 single-cell suspensions were each well mixed and adjusted with cell culture media to cell densities of 2.75×10^3 cells/mL and 8.25×10^3 cells/mL, respectively. The adjusted cell suspensions were each well mixed and added to 96-well cell culture plates at 180 μL/well. To each of the peripheral wells of the 96-well plates was added 200 μL of media only. The plate was incubated in an incubator for 24 h (37° C., 5% CO2).
(§6) 4. Compound preparation: the compound was dissolved in DMSO (dimethyl sulfoxide, Shanghai Titan Scientific Co., Ltd.) to prepare a stock solution at an initial concentration of 10 mM.
(§7) Small molecule compounds were prepared at an initial concentration of 500 nM as follows.
(§8) Different test samples at 100 μM (30 μL) were added to the first column of a 96-well U-bottom plate, and 20 μL of DMSO was added to each well of the second column through the eleventh column. […]
(§9) 7. Plate reading: the 96-well cell culture plate was taken out and tested in a microplate reader (BMG labtech, PHERAstar FS) for chemiluminescence.
(§10) Data were processed and analyzed using Microsoft Excel and Graphpad Prism 5.

The subject of a further assay is SK-BR-3 tumor cells. Described as above. The format is cell-based. The following applies: Homo sapiens, SK-BR-3, 144 h, read-out: IC50 in inhibiting in vitro proliferation of SK-BR-3 cells. Here is the method:
as §1, §2, §3, §4, §5, §6, §7, §8, §9, §10

In assay [1] the test system is human breast cancer cells trastuzumab drug-resistant strain (herceptin) JIMT-1 xenograft tumor. In words: Drug efficacy on JIMT-1 tumor-bearing mice. To be noted: 10 mg/kg; two intraperitoneal injections; observation for 34 days. The assay is classed as in vivo, nu/nu nude mice. On the procedure:
The tumor volumes and body weights were measured twice a week and the results were recorded.
Tumor volume (V) was calculated as: V=½×Llong×Lshort^2

On to `CC[C@@]1(O)C(=O)OCc2c1cc1n(c2=O)Cc2c-1nc1cc(F)c(C)c3c1c2[C@@H](NC(=O)C1(CO)CC1)CC3` [Compound 5, N-((1S,9S)-9-ethyl-5-fluoro-9-hydroxy-4-methyl-10,13-dioxo-2,3,9,10,13,15-hexahydro-1H,12H-benzo[de]pyrano[3′,4′:6,7]indolizino[1,2-b]quinolin-1-yl)-1-(hydroxymethyl)cyclopropane-1-carboxamide], for which the IC50 in the assay with U87MG cells came out at 4.81 nM.
With `CC[C@@]1(O)C(=O)OCc2c1cc1n(c2=O)Cc2c-1nc1cc(F)c(C)c3c1c2[C@@H](NC(=O)C1(O)CC1)CC3` [Compound 1, N-((1S,9S)-9-ethyl-5-fluoro-9-hydroxy-4-methyl-10,13-dioxo-2,3,9,10,13,15-hexahydro-1H,12H-benzo[de]pyrano[3′,4′:6,7]indolizino[1,2-b]quinolin-1-yl)-1-hydroxycyclopropane-1-carboxamide], the figures for the IC50 with SK-BR-3 tumor cells and in the assay with U87MG cells were 0.12 nM and 0.23 nM, respectively.
`CC[C@@]1(O)C(=O)OCc2c1cc1n(c2=O)Cc2c-1nc1cc(F)c(C)c3c1c2[C@@H](NC(=O)C1(O)CCCC1)CC3` [Compound 4, N-((1S,9S)-9-ethyl-5-fluoro-9-hydroxy-4-methyl-10,13-dioxo-2,3,9,10,13,15-hexahydro-1H,12H-benzo[de]pyrano[3′,4′:6,7]indolizino[1,2-b]quinolin-1-yl)-1-hydroxycyclopentane-1-carboxamide]: the IC50 in the assay on SK-BR-3 tumor cells is 1.9 nM.
For T-DM1, the tumor inhibition rate result in assay [1] is recorded as “no inhibition effect on tumors”.
